# Read-outs that look alike come from different tables or passages of the source.
# Tests used:
# [1] = tested on: primary rat tracheal epithelial cells; settings: a chemical found in tobacco smoke, previously disclosed; cited from earlier work
# [2] = tested on: lipopolysaccharide-induced injury (lungs); settings: rats; cited from earlier work
# [3] = tested on: lipopolysaccharide-induced injury (lungs); settings: mice; cited from earlier work
# [4] = tested on: Nrf2 (nuclear factor erythroid 2-related factor 2); test: Alteration of regulatory elements of oxidative stress and inflammation (Nrf2); settings: "We and others have observed"
# heme oxygenase 1 = settings: Zhang H S, Wang S Q Biochem Pharmacol. 2007; cited from earlier work
# [5] = tested on: Nrf2 (nuclear factor erythroid 2-related factor 2); settings: "It has been shown" (related art); cited from earlier work
# [6] = tested on: inducible nitric oxide synthase; settings: Zhang H S, Wang S Q Biochem Pharmacol. 2007; cited from earlier work
smiles,measurement,setting,value
Cc1coc2c1C(=O)C(=O)c1c-2ccc2c1CCCC2(C)C [Tanshinone IIA],protection of primary rat tracheal epithelial cells from benzopyrene,[1],protects
same,protection of lungs from lipopolysaccharide-induced injury,[2],protects lungs
same,protection of lungs from lipopolysaccharide-induced injury,[3],protects lungs
same,effect on regulatory elements involved in oxidative stress and inflammation such as Nrf2,[4],alters regulatory elements
same,induction of heme oxygenase 1,heme oxygenase 1,inducer
same,effect on regulatory elements involved in oxidative stress and inflammation such as Nrf2,[5],alters regulatory elements
same,suppression of the induction of inducible nitric oxide synthase,[6],suppressor of the induction

# Reference: patent US20120321729A1, “NUTRITIONAL FORMULA FOR MANAGING CHRONIC OBSTRUCTIVE PULMONARY DISEASE (COPD) AND LUNG HEALTH” (priority 2011, published 2012)
